Measurements published in PubChem BioAssay AID1963829 (Molecular Pharmacology Branch, DTP, NCI, 2024).
pIC50: −log10 of the molar value.

System: 935938-334-R-J1-PDC complex spheroid viability
Assay: Anticancer human tumor 935938-334-R-J1-PDC patient-derived small intestine adenocarcinoma cell line growth inhibition [POLQ]
Conditions: for pIC50: curve of first compound; for viability, T/C: stronger effect = lower value; active = viability on the fitted dose curve at most 10% of control; inactive = the rest
Summary of the method: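 Three-cell-type spheroids modelling solid tumor plus stroma served as the readout system; POL inhibitors were tested individually and in combination, concentration ranges set by clinical Cmax where known.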

[1] = second compound 0.0316 µM, first compound 0.0316 µM
[2] = second compound 0.0316 µM, first compound 0.1 µM
[3] = second compound 0.0316 µM, first compound 0.316 µM
[4] = second compound 0.0316 µM, first compound 1 µM
[5] = second compound 0.1 µM, first compound 0.0316 µM
[6] = second compound 0.1 µM, first compound 0.1 µM
[7] = second compound 0.1 µM, first compound 0.316 µM
[8] = second compound 0.1 µM, first compound 1 µM
[9] = second compound 0.316 µM, first compound 0.0316 µM
[10] = second compound 0.316 µM, first compound 0.1 µM
[11] = second compound 0.316 µM, first compound 0.316 µM
[12] = second compound 0.316 µM, first compound 1 µM
[13] = second compound 1 µM, first compound 0.0316 µM
[14] = second compound 1 µM, first compound 0.1 µM
[15] = second compound 1 µM, first compound 0.316 µM
[16] = second compound 1 µM, first compound 1 µM
[17] = second compound 3.16 µM, first compound 0.0316 µM
[18] = second compound 3.16 µM, first compound 0.1 µM
[19] = second compound 3.16 µM, first compound 0.316 µM
[20] = second compound 3.16 µM, first compound 1 µM
[21] = second compound 10 µM, first compound 0.0316 µM
[22] = second compound 10 µM, first compound 0.1 µM
[23] = second compound 10 µM, first compound 0.316 µM
[24] = second compound 10 µM, first compound 1 µM
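Note: spheroids exposed to drugs for seven days before viability read.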
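Throughout, for viability, T/C: 100% = DMSO vehicle control wells.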

O=c1[nH]cc(F)c(=O)[nH]1 + Cc1cccc(N(C)C(=O)C2C(O)CCN2c2nc(C)cc(C(F)(F)F)c2C#N)c1
< 5.00: pIC50 (second compound 0.0316 µM) | pIC50 (second compound 0.1 µM) | pIC50 (second compound 0.316 µM) | pIC50 (second compound 1 µM) | pIC50 (second compound 3.16 µM) | pIC50 (second compound 10 µM)
inactive: viability, T/C [1] 131% | viability, T/C [2] 113% | viability, T/C [3] 94.2% | viability, T/C [4] 84% | viability, T/C (second compound 0.0316 µM, first compound 3.16 µM) 74.2% | viability, T/C (second compound 0.0316 µM, first compound 10 µM) 56.1% | viability, T/C [5] 106% | viability, T/C [6] 127% | viability, T/C [7] 93% | viability, T/C [8] 76.7% | viability, T/C (second compound 0.1 µM, first compound 3.16 µM) 67.4% | viability, T/C (second compound 0.1 µM, first compound 10 µM) 67.7% | viability, T/C [9] 84% | viability, T/C [10] 122% | viability, T/C [11] 124% | viability, T/C [12] 82.4% | viability, T/C (second compound 0.316 µM, first compound 3.16 µM) 78% | viability, T/C (second compound 0.316 µM, first compound 10 µM) 68.2% | viability, T/C [13] 110% | viability, T/C [14] 94.9% | viability, T/C [15] 122% | viability, T/C [16] 91.7% | viability, T/C (second compound 1 µM, first compound 3.16 µM) 73.7% | viability, T/C (second compound 1 µM, first compound 10 µM) 64% | viability, T/C [17] 120% | viability, T/C [18] 126% | viability, T/C [19] 97.5% | viability, T/C [20] 78.3% | viability, T/C (second compound 3.16 µM, first compound 3.16 µM) 65.3% | viability, T/C (second compound 3.16 µM, first compound 10 µM) 67.2% | viability, T/C [21] 99.1% | viability, T/C [22] 142% | viability, T/C [23] 87.1% | viability, T/C [24] 95% | viability, T/C (second compound 10 µM, first compound 3.16 µM) 68% | viability, T/C (second compound 10 µM, first compound 10 µM) 65.9%

COc1cccc(OCCCN)c1-c1cc(Nc2cnc(C#N)cn2)n[nH]1 + COC1C(OC(N)=O)C(O)C(Oc2ccc3c(O)c(NC(=O)c4ccc(O)c(CC=C(C)C)c4)c(=O)oc3c2C)OC1(C)C
7.32: pIC50 (second compound 0.316 µM)
7.30: pIC50 (second compound 0.0316 µM)
7.43: pIC50 (second compound 1 µM) | pIC50 (second compound 3.16 µM)
7.56: pIC50 (second compound 10 µM)
active: viability, T/C [4] 9.12% | viability, T/C [12] 9.51% | viability, T/C [16] 8.98%
7.41: pIC50 (second compound 0.1 µM)
inactive: viability, T/C (second compound 0.0316 µM, first compound 0.00316 µM) 90.2% | viability, T/C (second compound 0.0316 µM, first compound 0.01 µM) 88.9% | viability, T/C [1] 65.2% | viability, T/C [2] 25.8% | viability, T/C [3] 12.1% | viability, T/C (second compound 0.1 µM, first compound 0.00316 µM) 100% | viability, T/C (second compound 0.1 µM, first compound 0.01 µM) 89.1% | viability, T/C [5] 54.5% | viability, T/C [6] 25.4% | viability, T/C [7] 12.5% | viability, T/C [8] 9.92% | viability, T/C (second compound 0.316 µM, first compound 0.00316 µM) 89.2% | viability, T/C (second compound 0.316 µM, first compound 0.01 µM) 79.7% | viability, T/C [9] 64.2% | viability, T/C [10] 26.6% | viability, T/C [11] 10.6% | viability, T/C (second compound 1 µM, first compound 0.00316 µM) 113% | viability, T/C (second compound 1 µM, first compound 0.01 µM) 85.1% | viability, T/C [13] 57.5% | viability, T/C [14] 23.7% | viability, T/C [15] 11.1% | viability, T/C (second compound 3.16 µM, first compound 0.00316 µM) 80.7% | viability, T/C (second compound 3.16 µM, first compound 0.01 µM) 89.8% | viability, T/C [17] 52% | viability, T/C [18] 22.3% | viability, T/C [19] 11.1% | viability, T/C [20] 9% | viability, T/C (second compound 10 µM, first compound 0.00316 µM) 84.4% | viability, T/C (second compound 10 µM, first compound 0.01 µM) 91.6% | viability, T/C [21] 45.3% | viability, T/C [22] 15.4% | viability, T/C [23] 11.8% | viability, T/C [24] 8.31%
